Laboratory results as given in patent publication US9957539B2, “Method for using hexenol glycosyl transferase” (SUNTORY HOLDINGS LIMITED, priority 2013, dated 2018).

B1: Cs_UGT85like_C1: Camellia sinensis glycosyltransferase, amino acid sequence SEQ ID NO: 4, expressed His-tagged in E. coli (protein, listed as Camellia sinensis)
chain: MAKLHFFFFPVMAQGHMIPTLDMAKLFASHGVKATIITTPLNAPYFTRSIQRTHHSISVLTLKFPAVEAGLVEGCESVDQIPSPDMLPNFLKATTMLQDPLERLLQDSRPDCLVADMFFPWATHVAAKFNIPRLVFHGTGFFTLCASENLRLYMPQASVSSDDEPFLVPNLPHKIMLTRSQLPENERCDTETGLSTMLKQVKETELTSYGVIVNSFYELEPDYADYYRNVLGRRAWHIGPVSLCNREVEDKAQRGKESAIDEVECLKWLNSKKPNSVIYVCFGSLGDFTASQLFELAMGLEASGQQFIWVVRKGKIEEDGDEKRLPEEFEERMKDKGLIIRGWAPQVLILDHESIGGFVTHCGWNSILEGVCAGVPMVTWPRFAEQFYNEKLVTEVLRIGVGVGARQWQIGAGSDCIKGETIAKAVKRVMEAGEEAEGMRTRARAAKDMAKKAVEEGGSSYSDLNALIQEMSS
modifications: His tag
B2: Cs_UGT_C30: Camellia sinensis glycosyltransferase, amino acid sequence SEQ ID NO: 2, expressed His-tagged in E. coli (protein, listed as Camellia sinensis)
chain: MGSRKQPHAVCVPFPAQGHINPMMQLAKLLHSRGFYITFVNTEFNHRRLLQSKGPEFLKGCADFQFESIPDGLPPSDRDATQDPPTLCIAMRDNCLDPFRVLLKKLNNNNNSIASRQVPGVTCVVSDGAMNFAMKAAEEAGIPEVQFWTASACGFMGYLHYPQLVQRGIFPFKDESFQSDGSLDTTIDWIPGMRNIRLKDMPSFIRTTDPNDILFNYLSEEVQNCLKASAIIFNTFDTLEHQVLQAIASKFHNIYTIGPLSLLSKQVIDGEFKSLNSSLWKEDTKCLQWLDTKEPNSVVYVNYGSITVMTDQHLKEFAWGLANSKHPFLWIVRPDIVMGDSAILPEHFVEETKDRGLLVSWCPQEQVLSHPSIGVFLTHCGWNSTLESICGGVPIICWPFFAEQQTNCRYACTEWGIGMEVNHDVKRNEIVALINEMLEGDKGKQMRKKALKLKKEAEEATDVGGLSYNNFDRLIKEALHYCEQY
modifications: His tag

Tested on: not listed separately
Experiment: Hexenol glycosylation activity of recombinant UGT enzymes (enzyme reaction with UDP-glucose, LC-MS analysis of product)
Assay type: biochemical
Conditions: 2 mM UDP-glucose, […] sugar acceptor substrate, pH 7.5, 30° C. for 1 hour; product detected by LC-MS against reference standard
Experimental: Standard enzyme reaction conditions are as follows. […] The enzyme reaction solution (5 μl) was analyzed by LC-MS under the following conditions. LC Conditions • Column: CAPCELL PAK C18-UG120 (2.0 mm I.D.×150 mm) • Mobile phase: A: […] (m/z 261, 297, 307) Since green leaf volatiles are found in a wide range of land plants, a search was conducted for UGTs causing glycosylation of green leaf volatiles derived from other plant lines on the basis of homology with the sequence of Camellia sinensis Cs_UGT_C30.
For B1, the “glycosylation activity on cis-3-hexenol (generation of cis-3-hexenyl monoglucoside)” value was “glycosylation activity on cis-3-hexenol”.
For B2, the “glycosylation activity on cis-3-hexenol (generation of cis-3-hexenyl monoglucoside)” value was “glycosylation activity on cis-3-hexenol”.

Tested on: CsUGTC30
Experiment: Specificity of CsUGTC30 for sugar acceptors (relative activity of transglucosylation)
Assay type: biochemical, Camellia sinensis
Conditions: UDP-glucose as donor; 30 minutes at 30° C.; activity on geraniol is set to 100% (FIG. 8)
Text: Standard enzyme reaction conditions are as follows.
Next, to clarify the substrate specificity of CsUGTC30, geraniol, linalool, eugenol, benzyl alcohol, 2-phenylethanol, quercetin and cyanidin were each used as a substrate to determine the relative activity of transglucosylation with the above enzyme and under the above enzyme reaction conditions.
With `CC/C=C\CCO` [hexenol, cis-3-hexen-1-ol] the “relative transglucosylation activity of CsUGTC30 on the substrate (sugar acceptor)” value (“relative transglucosylation activity” for short) was “at the same level”.
With `OCc1ccccc1` [benzyl alcohol] the “relative transglucosylation activity” value was “second highest activity”.
In the case of `O=c1c(O)c(-c2ccc(O)c(O)c2)oc2cc(O)cc(O)c12` [quercetin], the “relative transglucosylation activity” value is reported as “no transglycosylation activity”.
For `C=CCc1ccc(O)c(OC)c1` [eugenol], the “relative transglucosylation activity” value was “second highest activity”.
For `OCCc1ccccc1` [2-phenylethanol], the “relative transglucosylation activity” value was “transglycosylation activity”.
For `C=CC(C)(O)CCC=C(C)C` (stereo not drawn) [linalool], the “relative transglucosylation activity” value was “transglycosylation activity”.
In the case of `CC(C)=CCC/C(C)=C/CO` [geraniol], the “relative transglucosylation activity” value is reported as “highest activity”.
